Data reported in patent US7897593B2, “HIV integrase inhibitors” (priority 2006, dated 2011).

Experiments:
[1] = target: T1, HIV-integrase (Human immunodeficiency virus type 1 group M subtype B, UniProt P12497); assay: HIV-Integrase Inhibition Activity (SPA strand transfer assay); type: biochemical; conditions: recombinant integrase, SPA beads, P33 labeled target DNA
T1 construct: Recombinant integrase (0.26 ng) was incubated with the beads
Method: HIV-Integrase InhibitionActivity. To evaluate in-vitro activity against HIV-integrase, 5 pmole of biotin labeled substrate DNA was bound to 100 μg of Streptavidin coated PVT SPA beads (Amersham Pharmacia Biotech). Recombinant integrase (0.26 ng) was incubated with the beads for 90 min at 37° C. Unbound enzyme was removed by washing the complex followed by addition of inhibitors and 0.1 fmol of P33 labeled target DNA. The reaction was stopped by adding EDTA to a final concentration of 10 mM. Samples were counted in TopCountNXT (Packard) and the CPM was used as a measure of integration. The reaction condition was as described in A. Engelman and R. Craigie, J. Virol 69, 5908-5911 (1995). The sequences of substrate and target DNA were described in Nucleic Acid Research 22, 1121-1122 (1994). Activity equal to A refers to a compound having IC50=0.001 to 0.01 μM B=0.01-0.1, and C≧0.1 μM respectively.

[2] = system: recombinant NL-Rluc virus; assay: Inhibition of HIV replication; type: cell-based; conditions: Human immunodeficiency virus 1, read-out: Antiviral Activity, NL-RLuc virus; three serum conditions described, the one tabulated is not stated

Structure (SMILES) | IC50 [1] | EC50 [2]
Cc1ccc(F)cc1S(=O)(=O)N1CCC2(CC1)OCCn1c2nc(C(=O)NCc2ccc(F)cc2)c(O)c1=O [Example 18] | 1 to 10 nM | 1 to 10 nM
CCOC(=O)N1CCC2(CC1)OCCn1c2nc(C(=O)NCc2ccc(F)cc2-n2cnc(C)n2)c(O)c1=O [Example 33, Ethyl 2′-(4-fluoro-2-(3-methyl-1H-1,2,4-triazol-1-yl)benzylcarbamoyl)-3′-hydroxy-4′-oxo-6′,7′-dihydro-4′H-spiro[piperidine-4,9′-pyrimido[2,1-c][1,4]oxazine]-1-carboxylate] | 1 to 10 nM | 1 to 10 nM
CS(=O)(=O)N1CCC2(CC1)OCCn1c2nc(C(=O)NCc2ccc(F)cc2-n2cncn2)c(O)c1=O [Example 7] | 1 to 10 nM | 1 to 10 nM
O=C(NCc1ccc(F)cc1)c1nc2n(c(=O)c1O)CCOCC21CCN(C(=O)OCc2ccccc2)CC1 [Example 54] | 10 to 100 nM | 10 to 100 nM
Cc1ncnn1-c1cc(F)ccc1CNC(=O)c1nc2n(c(=O)c1O)CCOC21CCN(C(=O)OCc2ccccc2)C1 (stereo not shown) [Example 37, Benzyl 2-(4-fluoro-2-(5-methyl-1H-1,2,4-triazol-1-yl)benzylcarbamoyl)-3-hydroxy-4-oxo-6,7-dihydro-4H-spiro[pyrimido[2,1-c][1,4]oxazine-9,3′-pyrrolidine]-1′-carboxylate] | 10 to 100 nM | 10 to 100 nM
Cc1ncn(-c2cc(F)ccc2CNC(=O)c2nc3n(c(=O)c2O)CCOC32CCN(S(=O)(=O)c3cc(F)ccc3C)CC2)n1 [Example 20] | 1 to 10 nM | 1 to 10 nM
Cc1ccc(F)cc1S(=O)(=O)N1CCC2(CC1)OCCn1c2nc(C(=O)NCc2ccc(F)cc2-n2ncnc2C)c(O)c1=O [Example 21] | 10 to 100 nM | 1 to 10 nM
CN(C)C(=O)C(=O)N1CCC2(CC1)OCCn1c2nc(C(=O)NCc2ccc(F)cc2)c(O)c1=O [Example 30, 1-(2-(Dimethylamino)-2-oxoacetyl)-N-(4-fluorobenzyl)-3′-hydroxy-4′-oxo-6′,7′-dihydro-4′H-spiro[piperidine-4,9′-pyrimido[2,1-c][1,4]oxazine]-2′-carboxamide] | 1 to 10 nM | 10 to 100 nM
O=C(NCc1ccc(F)cc1)c1nc2n(c(=O)c1O)CCOC21CCN(C(=O)c2ccccc2)CC1 [Example 10] | 10 to 100 nM | 1 to 10 nM
Cc1ccc(S(=O)(=O)N2CCC3(CC2)OCCn2c3nc(C(=O)NC(C)c3ccc(F)cc3)c(O)c2=O)cc1 (stereo not shown) [Example 13] | 10 to 100 nM | 10 to 100 nM
CN1CCN(S(=O)(=O)c2cc(F)ccc2CNC(=O)c2nc3n(c(=O)c2O)CCCOC32CCN(C(=O)OCc3ccccc3)CC2)CC1 [Example 50] | 10 to 100 nM | 10 to 100 nM
Cc1ncnn1-c1cc(F)ccc1CNC(=O)c1nc2n(c(=O)c1O)CCOC21CCN(S(C)(=O)=O)C1 (stereo not shown) [Example 39, N-(4-Fluoro-2-(5-methyl-1H-1,2,4-triazol-1-yl)benzyl)-3-hydroxy-1′-(methylsulfonyl)-4-oxo-6,7-dihydro-4H-spiro[pyrimido[2,1-c][1,4]oxazine-9,3′-pyrrolidine]-2-carboxamide] | 10 to 100 nM | 10 to 100 nM
CC1CN(S(=O)(=O)c2cc(F)ccc2CNC(=O)c2nc3n(c(=O)c2O)CCCOC32CCN(C(=O)OCc3ccccc3)CC2)CC(C)N1 (stereo not shown) [Example 49] | 10 to 100 nM | 10 to 100 nM
CC(C)OC(=O)N1CCC2(C1)OCCn1c2nc(C(=O)NCc2ccc(F)cc2)c(O)c1=O (stereo not shown) [Example 42, Isopropyl 2-(4-fluorobenzylcarbamoyl)-3-hydroxy-4-oxo-6,7-dihydro-4H-spiro[pyrimido[2,1-c][1,4]oxazine-9,3′-pyrrolidine]-1′-carboxylate] | 1 to 10 nM | 1 to 10 nM
O=C(NCc1ccc(F)cc1)c1nc2n(c(=O)c1O)CCOC21CCN(C(=O)OCc2ccccc2)CC1 [Example 22] | 1 to 10 nM | 1 to 10 nM
O=C(NCc1ccc(F)cc1)c1nc2n(c(=O)c1O)CCCCC21CCN(C(=O)OCc2ccccc2)CC1 [Example 56] | 10 to 100 nM | 10 to 100 nM
Cc1ncnn1-c1cc(F)ccc1CNC(=O)c1nc2n(c(=O)c1O)CCOC21CCN(C(=O)OCc2ccccc2)CC1 [Example 23] | 10 to 100 nM | 1 to 10 nM
Cc1ccc(S(=O)(=O)N2CCC3(CC2)OCCn2c3nc(C(=O)NCc3ccc(F)cc3-n3cncn3)c(O)c2=O)cc1 [Example 11] | 1 to 10 nM | 1 to 10 nM

Structure (SMILES) | IC50 [1] | EC50 [2]
Cc1ncnn1-c1cc(F)ccc1CNC(=O)c1nc2n(c(=O)c1O)CCOC21CCN(C(=O)OC(C)C)C1 (stereo not shown) [Example 43, Isopropyl 2-(4-fluoro-2-(5-methyl-1H-1,2,4-triazol-1-yl)benzylcarbamoyl)-3-hydroxy-4-oxo-6,7-dihydro-4H-spiro[pyrimido[2,1-c][1,4]oxazine-9,3′-pyrrolidine]-1′-carboxylate] | 10 to 100 nM | 10 to 100 nM
CS(=O)(=O)N1CCC2(C1)OCCn1c2nc(C(=O)NCc2ccc(F)cc2)c(O)c1=O (stereo not shown) [Example 38, N-(4-Fluorobenzyl)-3-hydroxy-1′-(methylsulfonyl)-4-oxo-6,7-dihydro-4H-spiro[pyrimido[2,1-c][1,4]oxazine-9,3′-pyrrolidine]-2-carboxamide] | 1 to 10 nM | 10 to 100 nM
Cc1ncn(-c2cc(F)ccc2CNC(=O)c2nc3n(c(=O)c2O)CCOC32CCN(C(=O)C(=O)N(C)C)CC2)n1 [Example 32, 1-(2-(Dimethylamino)-2-oxoacetyl)-N-(4-fluoro-2-(3-methyl-1H-1,2,4-triazol-1-yl)benzyl)-3′-hydroxy-4′-oxo-6′,7′-dihydro-4′H-spiro[piperidine-4,9′-pyrimido[2,1-c][1,4]oxazine]-2′-carboxamide] | 10 to 100 nM | > 100 nM
COC(=O)C(=O)N1CCC2(CC1)OCCn1c2nc(C(=O)NCc2ccc(F)cc2-n2ncnc2C)c(O)c1=O [Example 26, Methyl 2-(2′-(4-fluoro-2-(5-methyl-1H-1,2,4-triazol-1-yl)benzylcarbamoyl)-3′-hydroxy-4′-oxo-6′,7′-dihydro-4′H-spiro[piperidine-4,9′-pyrimido[2,1-c][1,4]oxazine]-1-yl)-2-oxoacetate] | 10 to 100 nM | 10 to 100 nM
Cc1ccc(S(=O)(=O)N2CCC3(CC2)OCCn2c3nc(C(=O)NCc3ccc(F)cc3S(=O)(=O)N3CCOCC3)c(O)c2=O)cc1 [Example 14] | 10 to 100 nM | 1 to 10 nM
COC(=O)N1CCC2(CC1)OCCn1c2nc(C(=O)NCc2ccc(F)cc2)c(O)c1=O [Example 4] | 1 to 10 nM | 1 to 10 nM
Cc1ccc(F)cc1S(=O)(=O)N1CCC2(CC1)OCCn1c2nc(C(=O)NCc2ccc(F)cc2-n2cncn2)c(O)c1=O [Example 19] | 1 to 10 nM | 1 to 10 nM
O=C(O)C(=O)N1CCC2(CC1)OCCn1c2nc(C(=O)NCc2ccc(F)cc2)c(O)c1=O [Example 29, 2-(2′-(4-Fluorobenzylcarbamoyl)-3′-hydroxy-4′-oxo-6′,7′-dihydro-4′H-spiro[piperidine-4,9′-pyrimido[2,1-c][1,4]oxazine]-1-yl)-2-oxoacetic acid] | 1 to 10 nM | > 100 nM
Cc1ncnn1-c1cc(F)ccc1CNC(=O)c1nc2n(c(=O)c1O)CCOC21CCN(C(=O)C(=O)N(C)C)CC1 [Example 27, 1-(2-(Dimethylamino)-2-oxoacetyl)-N-(4-fluoro-2-(5-methyl-1H-1,2,4-triazol-1-yl)benzyl)-3′-hydroxy-4′-oxo-6′,7′-dihydro-4′H-spiro[piperidine-4,9′-pyrimido[2,1-c][1,4]oxazine]-2′-carboxamide] | 10 to 100 nM | > 100 nM
CN(C)C(=O)N1CCC2(CC1)OCCn1c2nc(C(=O)NCc2ccc(F)cc2-n2cncn2)c(O)c1=O [Example 5] | 1 to 10 nM | 1 to 10 nM
Cc1ccc(S(=O)(=O)N2CCC3(CC2)OCCn2c3nc(C(=O)NCc3ccc(F)cc3-n3ncnc3C)c(O)c2=O)cc1 [Example 16] | 10 to 100 nM | 1 to 10 nM
COC(=O)N1CCC2(CC1)OCCn1c2nc(C(=O)NCc2ccc(F)cc2-n2cncn2)c(O)c1=O [Example 3] | 1 to 10 nM | 1 to 10 nM
CNC(=O)c1nc2n(c(=O)c1O)CCOC21CCN(S(=O)(=O)c2cc(F)ccc2C)CC1 [Example 25, 1-(5-Fluoro-2-methylphenylsulfonyl)-3′-hydroxy-N-methyl-4′-oxo-6′,7′-dihydro-4′H-spiro[piperidine-4,9′-pyrimido[2,1-c][1,4]oxazine]-2′-carboxamide] | ≥ 100 nM | > 100 nM
COC(=O)C(=O)N1CCC2(CC1)OCCn1c2nc(C(=O)NCc2ccc(F)cc2)c(O)c1=O [Example 28, Methyl 2-(2′-(4-fluorobenzylcarbamoyl)-3′-hydroxy-4′-oxo-6′,7′-dihydro-4′H-spiro[piperidine-4,9′-pyrimido[2,1-c][1,4]oxazine]-1-yl)-2-oxoacetate] | 1 to 10 nM | 10 to 100 nM
CN(C)C(=O)N1CCC2(CC1)OCCn1c2nc(C(=O)NCc2ccc(F)cc2)c(O)c1=O [Example 6] | 1 to 10 nM | 1 to 10 nM
CS(=O)(=O)N1CCC2(CC1)OCCn1c2nc(C(=O)NCc2ccc(F)cc2)c(O)c1=O [Example 8] | 1 to 10 nM | 1 to 10 nM
O=C(NCc1ccc(F)cc1)c1nc2n(c(=O)c1O)CCOC21CCN(C(=O)OCc2ccccc2)C1 (stereo not shown) [Example 36, Benzyl 2-(4-fluorobenzylcarbamoyl)-3-hydroxy-4-oxo-6,7-dihydro-4H-spiro[pyrimido[2,1-c][1,4]oxazine-9,3′-pyrrolidine]-1′-carboxylate] | 1 to 10 nM | 1 to 10 nM
